Like-named read-outs stand apart in the source and are kept apart here.
Key:
[1] = molecular target: West Nile Virus (WNV) NS2B-NS3 protease (West Nile virus (WNV), UniProt P06935); assay: WNV Protease Inhibition Assay; assay type: biochemical
Excerpt: WNV Protease Inhibition Assay

[2] = system: ZIKV replicon in Vero cells; assay: ZIKV Replication Inhibition Assay (replicon, NanoLuc); details: Zika virus, Vero, 72 h, read-out: Zika Replicon EC50
[3] = 2 nM protease, 10 μM pERTKR-AMC substrate, read-out: WNV Protease IC50

Chain of West Nile Virus (WNV) NS2B-NS3 protease (P06935 1502-1679 limits assumed): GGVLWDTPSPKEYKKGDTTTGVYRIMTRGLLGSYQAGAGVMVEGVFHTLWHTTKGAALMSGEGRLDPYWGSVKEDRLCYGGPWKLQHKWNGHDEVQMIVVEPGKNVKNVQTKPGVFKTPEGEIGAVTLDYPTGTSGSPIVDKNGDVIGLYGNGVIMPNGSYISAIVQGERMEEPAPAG
Chain of West Nile Virus (WNV) NS2B-NS3 protease (P06935 1371-1501 partner limits assumed): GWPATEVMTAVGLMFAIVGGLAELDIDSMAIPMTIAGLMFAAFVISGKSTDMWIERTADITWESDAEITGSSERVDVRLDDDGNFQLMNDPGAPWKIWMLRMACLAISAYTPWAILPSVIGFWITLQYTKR

In the case of `C[C@H](c1ccc(Br)cc1)[n+]1cc([N-]C(=O)Nc2cccc(C(F)(F)F)c2)on1` [Example 68, (R)-(3-(1-(4-bromophenyl)ethyl)-1,2,3-oxadiazol-3-ium-5-yl)((3-(trifluoromethyl)phenyl)carbamoyl)amide], the IC50 [1] is reported as 1000 to 20000 nM and the EC50 [2] is reported as 1000 to 20000 nM.

For `C[C@@H](c1ccc(Br)cc1)[n+]1cc([N-]C(=O)Nc2cccc(C(F)(F)F)c2)on1` [Example 69, (S)-(3-(1-(4-bromophenyl)ethyl)-1,2,3-oxadiazol-3-ium-5-yl)((3-(trifluoromethyl)phenyl)carbamoyl)amide], the IC50 [1] was 1000 to 20000 nM and the EC50 [2] was 100 to 1000 nM.

Molecule `C[C@H](c1ccc(-c2cncnc2)cc1)[n+]1cc([N-]C(=O)Nc2cccc(C(F)(F)F)c2)on1` [Example 72, (R)-(3-(1-(4-(pyrimidin-5-yl)phenyl)ethyl)-1,2,3-oxadiazol-3-ium-5-yl)((3-(trifluoromethyl)phenyl)carbamoyl)amide] has an IC50 [1] of 100 to 1000 nM and an EC50 [2] of 100 to 1000 nM.

`C[C@H](c1ccc(Br)cc1)[n+]1cc([N-]C(=O)Nc2cncc(C(F)(F)F)c2)on1` [Example 73, (R)-(3-(1-(4-bromophenyl)ethyl)-1,2,3-oxadiazol-3-ium-5-yl)((5-(trifluoromethyl)pyridin-3-yl)carbamoyl)amide] showed an IC50 [1] of 1000 to 20000 nM and an EC50 [2] of 1000 to 20000 nM.

Work on `C[C@@H](c1ccc(-c2cncnc2)cc1)[n+]1cc([N-]C(=O)Nc2cccc(C(F)(F)F)c2)on1` [Example 74, (S)-(3-(1-(4-(pyrimidin-5-yl)phenyl)ethyl)-1,2,3-oxadiazol-3-ium-5-yl)((3-(trifluoromethyl)phenyl)carbamoyl)amide] yielded an IC50 [1, 3] of less than 100 nM and an EC50 [2] of 100 to 1000 nM.

In the case of `C[C@H](c1ccc(-c2cncnc2)cc1)[n+]1cc([N-]C(=O)Nc2cncc(C(F)(F)F)c2)on1` [Example 75, (R)-(3-(1-(4-(pyrimidin-5-yl)phenyl)ethyl)-1,2,3-oxadiazol-3-ium-5-yl)((5-(trifluoromethyl)pyridin-3-yl)carbamoyl)amide], the IC50 [1, 3] is reported as less than 100 nM and the EC50 [2] is reported as 100 to 1000 nM.

`O=C([N-]c1c[n+](Cc2ccc(-c3cncnc3)cn2)no1)Nc1cncc(C(F)(F)F)c1` [Example 125, (3-((5-(pyrimidin-5-yl)pyridin-2-yl)methyl)-1,2,3-oxadiazol-3-ium-5-yl)((5-(trifluoromethyl)pyridin-3-yl)carbamoyl)amide] showed an IC50 [1] of 100 to 1000 nM and an EC50 [2] of 100 to 1000 nM.

`Cc1noc(C)c1-c1ccc(C[n+]2cc([N-]C(=O)Nc3cncc(C(F)(F)F)c3)on2)nc1` [Example 126, (3-((5-(3,5-dimethylisoxazol-4-yl)pyridin-2-yl)methyl)-1,2,3-oxadiazol-3-ium-5-yl)((5-(trifluoromethyl)pyridin-3-yl)carbamoyl)amide] was tested, and the IC50 [1, 3] was less than 100 nM and the EC50 [2] was less than 100 nM.

In the case of `Cc1noc(C)c1-c1ccc(C[n+]2cc([N-]C(=O)Nc3cncc(C(F)(F)F)c3)on2)cc1` [Example 127, (3-(4-(3,5-dimethylisoxazol-4-yl)benzyl)-1,2,3-oxadiazol-3-ium-5-yl)((5-(trifluoromethyl)pyridin-3-yl)carbamoyl)amide], the IC50 [1] is reported as 100 to 1000 nM and the EC50 [2] is reported as 100 to 1000 nM.

With `Cc1cnncc1-c1ccc(C[n+]2cc([N-]C(=O)Nc3cncc(C(F)(F)F)c3)on2)nc1` [Example 128, (3-((5-(5-methylpyridazin-4-yl)pyridin-2-yl)methyl)-1,2,3-oxadiazol-3-ium-5-yl)((5-(trifluoromethyl)pyridin-3-yl)carbamoyl)amide] the IC50 [1] was 100 to 1000 nM and the EC50 [2] was 1000 to 20000 nM.

In the case of `Cc1cnncc1-c1ccc(C[n+]2cc([N-]C(=O)Nc3cccc(C(F)(F)F)c3)on2)nc1` [Example 129, (3-((5-(5-methylpyridazin-4-yl)pyridin-2-yl)methyl)-1,2,3-oxadiazol-3-ium-5-yl)((3-(trifluoromethyl)phenyl)carbamoyl)amide], the IC50 [1, 3] is reported as less than 100 nM and the EC50 [2] is reported as 100 to 1000 nM.

In the case of `Cc1ncnc(C)c1-c1ccc(C[n+]2cc([N-]C(=O)Nc3cccc(C(F)(F)F)c3)on2)nc1` [Example 130, (3-((5-(4,6-dimethylpyrimidin-5-yl)pyridin-2-yl)methyl)-1,2,3-oxadiazol-3-ium-5-yl)((3-(trifluoromethyl)phenyl)carbamoyl)amide], the IC50 [1, 3] is reported as less than 100 nM and the EC50 [2] is reported as less than 100 nM.

With `O=C([N-]c1c[n+](Cc2ccc(-c3cncnc3C(F)(F)F)cn2)no1)Nc1cccc(C(F)(F)F)c1` [Example 131, ((3-(trifluoromethyl)phenyl)carbamoyl)(3-((5-(4-(trifluoromethyl)pyrimidin-5-yl)pyridin-2-yl)methyl)-1,2,3-oxadiazol-3-ium-5-yl)amide] the IC50 [1, 3] was less than 100 nM and the EC50 [2] was less than 100 nM.

`Cc1ncnc(C)c1-c1ccc(C[n+]2cc([N-]C(=O)Nc3cncc(C(F)(F)F)c3)on2)nc1` [Example 132, (3-((5-(4,6-dimethylpyrimidin-5-yl)pyridin-2-yl)methyl)-1,2,3-oxadiazol-3-ium-5-yl)((5-(trifluoromethyl)pyridin-3-yl)carbamoyl)amide] was tested, and the IC50 [1] was 100 to 1000 nM and the EC50 [2] was 100 to 1000 nM.

For `COc1ncc(-c2ccc(C[n+]3cc([N-]C(=O)Nc4cncc(C(F)(F)F)c4)on3)nc2)c(C)n1` [Example 133, (3-((5-(2-methoxy-4-methylpyrimidin-5-yl)pyridin-2-yl)methyl)-1,2,3-oxadiazol-3-ium-5-yl)((5-(trifluoromethyl)pyridin-3-yl)carbamoyl)amide], the IC50 [1] was 100 to 1000 nM and the EC50 [2] was 100 to 1000 nM.

For `COc1ncc(-c2ccc(C[n+]3cc([N-]C(=O)Nc4cccc(C(F)(F)F)c4)on3)nc2)c(C)n1` [Example 134, (3-((5-(2-methoxy-4-methylpyrimidin-5-yl)pyridin-2-yl)methyl)-1,2,3-oxadiazol-3-ium-5-yl)((3-(trifluoromethyl)phenyl)carbamoyl)amide], the IC50 [1, 3] was less than 100 nM and the EC50 [2] was less than 100 nM.

`COc1ncnc(C)c1-c1ccc(C[n+]2cc([N-]C(=O)Nc3cccc(C(F)(F)F)c3)on2)nc1` [Example 135, (3-((5-(4-methoxy-6-methylpyrimidin-5-yl)pyridin-2-yl)methyl)-1,2,3-oxadiazol-3-ium-5-yl)((3-(trifluoromethyl)phenyl)carbamoyl)amide] was tested, and the IC50 [1, 3] was less than 100 nM and the EC50 [2] was less than 100 nM.

Molecule `COc1ncnc(C)c1-c1ccc(C[n+]2cc([N-]C(=O)Nc3cncc(C(F)(F)F)c3)on2)nc1` [Example 136, (3-((5-(4-methoxy-6-methylpyrimidin-5-yl)pyridin-2-yl)methyl)-1,2,3-oxadiazol-3-ium-5-yl)((5-(trifluoromethyl)pyridin-3-yl)carbamoyl)amide] has an IC50 [1] of 100 to 1000 nM and an EC50 [2] of 100 to 1000 nM.

Molecule `O=C([N-]c1c[n+](Cc2ccc(-c3cncnc3C(F)(F)F)cn2)no1)Nc1cncc(C(F)(F)F)c1` [Example 137, ((5-(trifluoromethyl)pyridin-3-yl)carbamoyl)(3-((5-(4-(trifluoromethyl)pyrimidin-5-yl)pyridin-2-yl)methyl)-1,2,3-oxadiazol-3-ium-5-yl)amide] has an IC50 [1, 3] of less than 100 nM and an EC50 [2] of less than 100 nM.

`Cc1ncccc1-c1ccc(C[n+]2cc([N-]C(=O)Nc3cccc(C(F)(F)F)c3)on2)nc1` [Example 138, (3-((2′-methyl-[3,3′-bipyridin]-6-yl)methyl)-1,2,3-oxadiazol-3-ium-5-yl)((3-(trifluoromethyl)phenyl)carbamoyl)amide] showed an IC50 [1, 3] of less than 100 nM and an EC50 [2] of less than 100 nM.

`Cc1ccncc1-c1ccc(C[n+]2cc([N-]C(=O)Nc3cccc(C(F)(F)F)c3)on2)nc1` [Example 139, (3-((4′-methyl-[3,3′-bipyridin]-6-yl)methyl)-1,2,3-oxadiazol-3-ium-5-yl)((3-(trifluoromethyl)phenyl)carbamoyl)amide] showed an IC50 [1, 3] of less than 100 nM and an EC50 [2] of less than 100 nM.

`Cc1ncn(C)c1-c1ccc(C[n+]2cc([N-]C(=O)Nc3cncc(C(F)(F)F)c3)on2)nc1` [Example 140, (3-((5-(1,4-dimethyl-1H-imidazol-5-yl)pyridin-2-yl)methyl)-1,2,3-oxadiazol-3-ium-5-yl)((5-(trifluoromethyl)pyridin-3-yl)carbamoyl)amide] was tested, and the IC50 [1] was 100 to 1000 nM and the EC50 [2] was 1000 to 20000 nM.

`Cc1ncccc1-c1ccc(C[n+]2cc([N-]C(=O)Nc3cncc(C(F)(F)F)c3)on2)nc1` [Example 141, (3-((2′-methyl-[3,3′-bipyridin]-6-yl)methyl)-1,2,3-oxadiazol-3-ium-5-yl)((5-(trifluoromethyl)pyridin-3-yl)carbamoyl)amide] was tested, and the IC50 [1, 3] was less than 100 nM and the EC50 [2] was 100 to 1000 nM.

With `Cc1noc(C)c1-c1ccc(C[n+]2cc([N-]C(=O)Nc3cccc(C4CC4)c3)on2)nc1` [Example 142, ((3-cyclopropylphenyl)carbamoyl)(3-((5-(3,5-dimethylisoxazol-4-yl)pyridin-2-yl)methyl)-1,2,3-oxadiazol-3-ium-5-yl)amide] the IC50 [1] was 100 to 1000 nM and the EC50 [2] was 100 to 1000 nM.

For `Cc1nn(C)c(C)c1-c1ccc(C[n+]2cc([N-]C(=O)Nc3cccc(C(F)(F)F)c3)on2)nc1` [Example 143, ((3-(trifluoromethyl)phenyl)carbamoyl)(3-((5-(1,3,5-trimethyl-1H-pyrazol-4-yl)pyridin-2-yl)methyl)-1,2,3-oxadiazol-3-ium-5-yl)amide], the IC50 [1, 3] was less than 100 nM and the EC50 [2] was 100 to 1000 nM.

Work on `N#Cc1ncncc1-c1ccc(C[n+]2cc([N-]C(=O)Nc3cncc(C(F)(F)F)c3)on2)nc1` [Example 144, (3-((5-(4-cyanopyrimidin-5-yl)pyridin-2-yl)methyl)-1,2,3-oxadiazol-3-ium-5-yl)((5-(trifluoromethyl)pyridin-3-yl)carbamoyl)amide] yielded an IC50 [1, 3] of less than 100 nM and an EC50 [2] of 1000 to 20000 nM.

`O=C([N-]c1c[n+](Cc2ccc(-c3ccnnc3)cn2)no1)Nc1cncc(C(F)(F)F)c1` [Example 145, (3-((5-(pyridazin-4-yl)pyridin-2-yl)methyl)-1,2,3-oxadiazol-3-ium-5-yl)((5-(trifluoromethyl)pyridin-3-yl)carbamoyl)amide] gave an IC50 [1] of 100 to 1000 nM and an EC50 [2] of 1000 to 20000 nM.

With `Cc1noc(C)c1-c1ccc(C[n+]2cc([N-]C(=O)Nc3cncc(C4CC4)c3)on2)nc1` [Example 146, ((5-cyclopropylpyridin-3-yl)carbamoyl)(3-((5-(3,5-dimethylisoxazol-4-yl)pyridin-2-yl)methyl)-1,2,3-oxadiazol-3-ium-5-yl)amide] the IC50 [1] was 100 to 1000 nM and the EC50 [2] was 100 to 1000 nM.
